“And” between values parts separate entries of the source, which are not always exact repeats. Equal values may be shown once.
How the values were obtained:
[1] = test system: H1299 xenografts; experiment: NSCLC xenograft tumor growth; assay type: in vivo, athymic nude mice; conditions: 4 mg/kg or 8 mg/kg, 5 consecutive days; measured for 15 days; vs control
Method: The antitumor effect of deguelin was tested using an iii vivo model. H1299 cells were injected into the dorsal flank of athymic nude mice. Once tumor volume reached 40-80 mm^3, treatment for 5 consecutive days with 4 or 8 mg/kg deguelin began. Tumors were measured every other day for 15 days. […] The results are expressed as the mean (±SD) tumor volume (calculated from at least 5 mice) relative to the initial volume.

[2] = test system: ERK1/2 (MAPK); experiment: ERK 1/2 kinase assay (MBP phosphorylation, immunoprecipitate of treated cells); assay type: cell-based; conditions: 1799 cells, 10^−7 M deguelin
Method: ERK 1/2 Kinase assay. ERK1/2 activity was determined by analyzing MAPK-induced phosphorylation of myelin basic protein (MBP) as previously described (Lee et al., 2002). Briefly, 1799 cells cultured in KSFM containing 10^−7 M deguelin for different time periods were lysed in lysis buffer, and ERK-1 and -2 were immunoprecipitated from 100 μg of cell extracts with antibodies (1 μg) that recognize ERK-1 and -2 (Santa Cruz Biotechnology) by rotation at 4° C. for overnight. The total volume was adjusted to 0.5 ml with lysis buffer. Protein A sepharose beads (20 μl) (Amersham Pharmacia Biotech) were added and incubated at 4° C. for 2 hour. The beads were washed three times with lysis buffer and once with kinase buffer (20 MM Hepes [pH 7.5], 20 mM β-glycerol phosphate, 10 mM PNPP, 10 mM MgCl2, 1 mM dithiothreitol, 50 mM sodium vanadate). Kinase assays were performed by incubating the beads with 30 μl kinase buffer to which […], 5 μCi [γ^32P] ATP (2000 cpm/pmol), and 2 μg MBP (Cell Signaling Technology) were added. The kinase reaction was performed at 30° C. for 20 min. The samples were suspended in Laemmli buffer, boiled for 5 min, and the samples were analyzed by SDS-PAGE. The gel was dried and autoradiographed.

[3] = test system: Chago; experiment: MTT assay, growth inhibition by deguelin or deguelin derivatives; assay type: cell-based; conditions: 3 days
[4] = test system: 1799 cells; experiment: MTT assay, viability of 1799 cells (also after Ad5CMV-MyrAkt-HA infection); assay type: cell-based
From the text: Cells and Cell Cultures. […] Tumors developed 6 months later. […] (Klein-Szanto et al., 1992).

[5] = test system: H358; experiment: MTT assay, growth inhibition by deguelin or deguelin derivatives; assay type: cell-based; conditions: H358, 3 days
[6] = test system: cell line not named (Table 1); experiment: MTT assay, growth inhibition by deguelin; assay type: cell-based; conditions: 3 days
[7] = test system: PI3K; experiment: PI3K assay (lipid kinase assay on immunoprecipitate of treated cells); assay type: cell-based; conditions: 1799 cells, 10^−7 M deguelin, 1 day
Method: PI3K Assay. 1799 cells cultured in KSFM containing 10^−7 M deguelin for different time periods were lysed in lysis buffer. PI3K was immunoprecipitated from 500 μg of cellular protein using pan-anti-p85 antibody (Upstate Biotechnology, Waltham, Mass.), which coprecipitates the p110 catalytic subunit of PI3K, and subsequent lipid kinase assay was performed as described previously (Sibilia et al., 2000). Briefly, the mixture was incubated with gentle rocking at 4° C. for 12 h, 10 mg of protein A-sepharose (Amersham Pharmacia Biotech) were added, and the incubation was continued for another 2 h. The immunoprecipitates were washed, in tandem, three times with lysis buffer, twice with 0.1 M Tris/HCl, pH 7.5, containing 0.5 M LiCl, and 10 μM sodium vanadate, and twice with 10 mM Tris/HCl, pH 7.5, containing 100 MM NaCl, 10 μM sodium vanadate, and 1 mM EDTA. Adequate amounts of the washed antibody conjugates, in 10 μl, were added to 80 μl of 30 mM Hepes, pH 7.5, containing 125 μM ATP, 10 μCi of [α-^32P] ATP, and 6.25 mM MgCl2, and the reaction was initiated by adding 20 μg of bovine brain extract (Type 1; Sigma) suspended in 10 μl of 30 mM Hepes, pH 7.5. […] The autoradiograms were scanned by a Photodyne image system and quantified using the NIH Image program (version 1.59).

[8] = test system: H441; experiment: MTT assay, growth inhibition by deguelin or deguelin derivatives; assay type: cell-based; conditions: 3 days

Compound: COc1cc2c(cc1OC)[C@@H]1C(=O)c3ccc4c(c3O[C@@H]1CO2)C=CC(C)(C)O4 [Deguelin]
- growth of NSCLC xenografts (tumor volume relative to initial volume) [1]: inhibited
- MAPK activity [2]: not affected
- Avg. % con ([3]; deguelin 10^−6M): 0.56 % con
- MTT value, mean of replicates (unheaded line) ([3]; deguelin 10^−6M): 0.086
- MTT value, replicate (unheaded line) ([3]; deguelin 10^−6M): 0.094 and 0.086 and 0.078
- Avg. % con ([3]; deguelin 10^−8M): 0.65 % con
- MTT value, mean of replicates (unheaded line) ([3]; deguelin 10^−8M): 0.1
- MTT value, replicate (unheaded line) ([3]; deguelin 10^−8M): 0.101 and 0.093 and 0.106
- Avg. % con ([3]; deguelin 10^−10M): 1.24 % con
- MTT value, mean of replicates (unheaded line) ([3]; deguelin 10^−10M): 0.191
- MTT value, replicate (unheaded line) ([3]; deguelin 10^−10M): 0.192 and 0.184 and 0.197
- Avg. % con ([3]; deguelin 10^−12M): 1.18 % con
- MTT value, mean of replicates (unheaded line) ([3]; deguelin 10^−12M): 0.182
- MTT value, replicate (unheaded line) ([3]; deguelin 10^−12M): 0.175 and 0.179 and 0.192
- viable number of 1799 cells ([4]; 1 day, concentration as low as 10^−9 M): reduced
- viability at 0.1 µM ([4]; 48 h, 10^−7 M deguelin, 2 days, read-out: viable cells, 1799 cells infected with 5×10^3 particles/cell Ad5CMV-Myr.Akt.HA): > 80%
- Avg. % con ([5]; deguelin 10^−6M): 0.68 % con
- MTT value, mean of replicates (unheaded line) ([5]; deguelin 10^−6M): 0.111
- MTT value, replicate (unheaded line) ([5]; deguelin 10^−6M): 0.108 and 0.113 and 0.112
- Avg. % con ([5]; deguelin 10^−8M): 0.74 % con
- MTT value, mean of replicates (unheaded line) ([5]; deguelin 10^−8M): 0.122
- MTT value, replicate (unheaded line) ([5]; deguelin 10^−8M): 0.114 and 0.128 and 0.125
- Avg. % con ([5]; deguelin 10^−10M): 0.79 % con
- MTT value, mean of replicates (unheaded line) ([5]; deguelin 10^−10M): 0.129
- MTT value, replicate (unheaded line) ([5]; deguelin 10^−10M): 0.122 and 0.12 and 0.146
- Avg. % con ([5]; deguelin 10^−12M): 0.87 % con
- MTT value, mean of replicates (unheaded line) ([5]; deguelin 10^−12M): 0.143
- MTT value, replicate (unheaded line) ([5]; deguelin 10^−12M): 0.148 and 0.143 and 0.139
- Avg. % con ([6]; deguelin 10^−6M): 0.82 % con
- MTT value, mean of replicates (unheaded line) ([6]; deguelin 10^−6M): 0.304
- MTT value, replicate (unheaded line) ([6]; deguelin 10^−6M): 0.306 (2×) and 0.299 and 0.305
- Avg. % con ([6]; deguelin 10^−8M): 0.78 % con
- MTT value, mean of replicates (unheaded line) ([6]; deguelin 10^−8M): 0.2908
- MTT value, replicate (unheaded line) ([6]; deguelin 10^−8M): 0.288 and 0.291 and 0.283 and 0.301
- Avg. % con ([6]; deguelin 10^−10M): 0.90 % con
- MTT value, mean of replicates (unheaded line) ([6]; deguelin 10^−10M): 0.3348
- MTT value, replicate (unheaded line) ([6]; deguelin 10^−10M): 0.337 and 0.327 and 0.343 and 0.332
- Avg. % con ([6]; deguelin 10^−12M): 1.01 % con
- MTT value, mean of replicates (unheaded line) ([6]; deguelin 10^−12M): 0.3768
- MTT value, replicate (unheaded line) ([6]; deguelin 10^−12M): 0.392 and 0.386 and 0.367 and 0.362
- PI3K activity (lipid kinase assay) [7]: decreased
- Avg. % con ([8]; deguelin 10^−6M): 0.82 % con
- MTT value, mean of replicates (unheaded line) ([8]; deguelin 10^−6M): 0.181
- MTT value, replicate (unheaded line) ([8]; deguelin 10^−6M): 0.18 (2×) and 0.183
- Avg. % con ([8]; deguelin 10^−8M): 0.94 % con
- MTT value, mean of replicates (unheaded line) ([8]; deguelin 10^−8M): 0.207
- MTT value, replicate (unheaded line) ([8]; deguelin 10^−8M): 0.209 and 0.203 and 0.21
- Avg. % con ([8]; deguelin 10^−10M): 1.01 % con
- MTT value, mean of replicates (unheaded line) ([8]; deguelin 10^−10M): 0.223
- MTT value, replicate (unheaded line) ([8]; deguelin 10^−10M): 0.21 and 0.231 and 0.229
- Avg. % con ([8]; deguelin 10^−12M): 1.12 % con
- MTT value, mean of replicates (unheaded line) ([8]; deguelin 10^−12M): 0.247
- MTT value, replicate (unheaded line) ([8]; deguelin 10^−12M): 0.234 and 0.259 and 0.249

— patent US20060128792A1, “Deguelin as a chemopreventive agent for lung cancer” (priority 2002, published 2006)
